One data set relates to MIS12 complex. Details: method as in PMID 24530301. Particulars: compared with Nsl1 C-terminal peptide (residues 258–281); cited from earlier work.
The test system of another data set is Knl1. The experiment in a line: SEC assessment of MIS12C^Nsl1ΔC binding to Knl1. Particulars: MIS12C^Nsl1ΔC (Nsl1 residues 265–281 deleted) + KNL1 at 4 µM each; 20 mM HEPES pH 7.8, 150 mM NaCl, 0.5 mM TCEP; Superose 6; at least two repeats. Details: species or system Homo sapiens. Here is the method:
Assessment of substitutions in the MIS12C–KNL1 interfaces
To test the effect of substitutions in the MIS12C–KNL1 interfaces, either wild-type MIS12C or MIS12C^Nsl1ΔC was mixed with either wild-type KNL1 or two mutants (KNL1^R2248D […] (KNL1^mut1), KNL1^S2270R S2272W (KNL1^mut2)) at 4 µM each in a buffer of 20 mM HEPES (pH 7.8), 150 mM NaCl and 0.5 mM TCEP, and 50 µl was loaded onto a Superose 6 size-exclusion column (Cytiva).
Extended Data Fig. 9 Biochemical validation of the MIS12C:Knl1 interface. a Coomassie blue-stained SDS-PAGE gels of the MIS12C:Knl1 interaction reconstitutions. MIS12C (WT) and MIS12C with Nsl1 truncated at the C-terminus (1–264 Nsl1 construct, MIS12C^Nsl1ΔC) were tested in their ability to bind either wild-type RWD domains of Knl1 (2131–2337 construct, labelled Knl1 for simplicity) or Knl1 mutants (R2248D/W2249S substitutions, Knl1^mut1, and S2270R/S2272W substitutions, Knl1^mut2, as well as S2270R/S2272W/R2248A/W2249S substitutions, Knl1^mut3). The binding experiments were repeated at least two independent times with identical results. The gels are aligned according to the fraction number of the protein sample eluted from the size exclusion column. b SEC elution chromatograms of all of the experiments described in (a). Source data

With “Knl1: outer kinetochore protein Knl1; prior affinity data of ref 11”, the “affinity of Knl1 for the whole MIS12 complex, in words” value in the data set on MIS12 complex is reported as “only slightly higher than its affinity for a peptide modeled on the C terminus of Nsl1 alone (residues 258–281)”.

B1: MIS12C^Nsl1ΔC: MIS12C with Nsl1 truncated at the C-terminus (1–264 Nsl1 construct; residues 265–281 deleted) (protein)
chain 1: MSVDPMTYEAQFFGFTPQTCMLRIYIAFQDYLFEVMQAVEQVILKKLDGIPDCDISPVQIRKCTEKFLCFMKGHFDNLFSKMEQLFLQLILRIPSNILLPEDKCKETPYSEEDFQHLQKEIEQLQEKYKTELCTKQALLAELEEQKIVQAKLKQTLTFFDELHNVGRDHGTSDFRESLVSLVQNSRKLQNIRDNVEKESKRLKIS
chain 2: MAEASSANLGSGCEEKRHEGSSSESVPPGTTISRVKLLDTMVDTFLQKLVAAGSYQRFTDCYKCFYQLQPAMTQQIYDKFIAQLQTSIREEISDIKEEGNLEAVLNALDKIVEEGKVRKEPAWRPSGIPEKDLHSVMAPYFLQQRDTLRRHVQKQEAENQQLADAVLAGRRQVEELQLQVQAQQQAWQALHREQRELVAVLREPE
chain 3: MTSVTRSEIIDEKGPVMSKTHDHQLESSLSPVEVFAKTSASLEMNQGVSEERIHLGSSPKKGGNCDLSHQERLQSKSLHLSPQEQSASYQDRRQSWRRASMKETNRRKSLHPIHQGITELSRSISVDLAESKRLGCLLLSSFQFSIQKLEPFLRDTKGFSLESFRAKASSLSEELKHFADGLETDGTLQKCFEDSNGKASDFSLEASVAEMKEYITKFSLERQTWDQLLLHYQQEAKEILSRGSTEAKITEVKVEPMTYLGSSQNEVLNTKPDYQKILQNQSKVFDCMELVMDELQGSVKQLQAFMDESTQCFQKVSVQLGKRSMQQLDPSPARKLLKLQLQNPPAIHGSGSGSCQ
chain 4: MAGSPELVVLDPPWDKELAAGTESQALVSATPREDFRVRCTSKRAVTEMLQLCGRFVQKLGDALPEEIREPALRDAQWTFESAVQENISINGQAWQEASDNCFMDSDIKVLEDQFDEIIVDIATKRKQYPRKILECVIKTIKAKQEILKQYHPVVHPLDLKYDPDPAPHMENLKCRGETVAKEISEAMKSLPALIEQGEGFSQVLRMQPVIHLQRIHQEVFSSCHRKPDAKPENFITQIETTPTETASRKTSDMVLKRKQTKDC
modifications: left off: double strep II (DS), C-terminal, state not stated
On to B1, for which the “MIS12C–Knl1 interaction by SEC, in words” value in the data set with Knl1 is “reduced the interaction strength between Knl1 and MIS12C”.

Values taken from PMC11189301, “Structure of the human outer kinetochore KMN network complex” (Nature Structural & Molecular Biology, 2024).
